Measurements from US11865176B2, “Compositions and methods of modulating anti-tumor immunity” (Dana-Farber Cancer Institute, Inc., priority 2016, dated 2024).

System: PD-1-overexpressing Jurkat cells
Assay: Small molecule screen: IL2 secretion (AlphaLISA) from stimulated PD-1-overexpressing Jurkat cells
Assay type: cell-based, human
Conditions: 3.3 μM compound; for Zscore_1 / Zscore_2: IL2 level, α-CD3/α-CD28/α-PD-1 beads; for Zscore_1: replicate 1; for Zscore_2: replicate 2; for Zscore_AVG: average of replicate Z scores
Procedure, shortened: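 Cells (100,000/well) with compound at 3.3 μM final, stimulated by α-CD3/α-CD28/α-PD-1 Dynabeads at an 8:1 bead:cell ratio. IL2 in supernatants measured by AlphaLISA. Hits scored ≥3 SD from the mean of DMSO-treated, α-PD-1-bead-stimulated controls.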

O=C(Nc1ccc(-c2cn[nH]c2)cc1)C1COc2ccccc2O1 (centres unmarked) [Rho Kinase Inhibitor V]
Zscore_1: −0.6152
Zscore_2: −2.172
Zscore_AVG: −1.394

COc1cc(OC)c(C=C2C(O)=Nc3ccccc32)c(OC)c1 [IC261]
Zscore_1: −0.7866
Zscore_2: −1.136
Zscore_AVG: −0.9616

Cn1sc(=O)n(Cc2ccccc2)c1=O [GSK-3b Inhibitor I]
Zscore_1: −1.327
Zscore_2: −2.222
Zscore_AVG: −1.774

COc1ccc(OC)c2c(=S)c3ccccc3[nH]c12 [Cdk4 Inhibitor II, 625987]
Zscore_1: 0.5748
Zscore_2: −1.274
Zscore_AVG: −0.3496

Cc1cncc2cccc(S(=O)(=O)N3CCCN(C(=O)CN)C[C@@H]3C)c12 [Rho Kinase Inhibitor IV]
Zscore_1: −5.704
Zscore_2: −5.042
Zscore_AVG: −5.373

NC(=O)c1ccc(-c2nc(-c3ccc4c(c3)OCCO4)c(-c3ccccn3)[nH]2)cc1 [Casein Kinase I Inhibitor, D4476]
Zscore_1: −1.219
Zscore_2: 1.296
Zscore_AVG: 0.03862

O=C1Nc2ccc(Br)cc2/C1=C/c1cc2c([nH]1)CCCC2 [VEGF Receptor 2 Kinase Inhibitor II]
Zscore_1: 0.1217
Zscore_2: −0.1806
Zscore_AVG: −0.02944

CCn1cnc2c(Nc3cccc(Cl)c3)nc(N[C@@H]3CCCC[C@@H]3N)nc21 [Cdk1 Inhibitor, CGP74514A]
Zscore_1: 1.595
Zscore_2: −1.02
Zscore_AVG: 0.2878

O=C(NC(NC(=S)Nc1ccc(F)c([N+](=O)[O-])c1)C(Cl)(Cl)Cl)C(c1ccccc1)c1ccccc1 (centres unmarked) [ATM/ATR Kinase Inhibitor]
Zscore_1: −1.798
Zscore_2: −1.073
Zscore_AVG: −1.436

c1cc(-c2cnn3cc(-c4ccc(OCCN5CCCCC5)cc4)cnc23)ccn1 [AMPK Inhibitor, Compound C]
Zscore_1: −2.877
Zscore_2: 1.296
Zscore_AVG: −0.7902

CC[C@H](CO)Nc1nc(NCc2ccc(-c3ccccn3)cc2)c2ncn(C(C)C)c2n1 (single isomer, unassigned) [CR8, (R)-Isomer]
Zscore_1: −9.662
Zscore_2: −6.961
Zscore_AVG: −8.311

CCCC(=O)Oc1ccc2[nH]c(C(=O)c3cc4ccccc4[nH]3)cc2c1 [PDGF Receptor Tyrosine Kinase Inhibitor II]
Zscore_1: −0.7009
Zscore_2: 0.7754
Zscore_AVG: 0.03721

IKK Inhibitor VII
Zscore_1: −6.154
Zscore_2: −3.033
Zscore_AVG: −4.594

O=C(Nc1ccc(Cl)cc1)c1ccccc1NCc1ccncc1 [VEGF Receptor Tyrosine Kinase Inhibitor II]
Zscore_1: −1.404
Zscore_2: −0.1009
Zscore_AVG: −0.7522

Cc1cc(C=C2C(=O)C=CC2=O)cc(C)c1O [TX-1918]
Zscore_1: −0.9736
Zscore_2: −2.336
Zscore_AVG: −1.655

COc1cc2ncnc(Nc3ccc(Oc4ccccc4)cc3)c2cc1OC [Src Kinase Inhibitor I]
Zscore_1: 4.691
Zscore_2: 1.808
Zscore_AVG: 3.249

O=c1[nH]c2ccccc2n1C1CCN(Cc2ccc(-c3nc4cc5nc[nH]c5cc4nc3-c3ccccc3)cc2)CC1 [Akt Inhibitor VIII, Isozyme- Selective, Akti-1/2]
Zscore_1: 1.673
Zscore_2: 1.052
Zscore_AVG: 1.362

NC(=O)c1ccc2[nH]ccc2c1 [p38 MAP Kinase Inhibitor VII, SD-169]
Zscore_1: 0.7558
Zscore_2: 1.067
Zscore_AVG: 0.9116

CN(C)CCCn1cc(C2=C(c3c[nH]c4ccccc34)C(=O)NC2=O)c2ccccc21 [Bisindolylmaleimide I]
Zscore_1: −9.431
Zscore_2: −8.32
Zscore_AVG: −8.875

O=[N+]([O-])c1ccc(-c2nc(-c3ccc(F)cc3)c(-c3ccncc3)[nH]2)cc1 [PD 169316]
Zscore_1: −0.1697
Zscore_2: 0.08497
Zscore_AVG: −0.04235

Isogranulatinude
Zscore_1: 1.39
Zscore_2: 4.572
Zscore_AVG: 2.981

CNCCNS(=O)(=O)c1cccc2cnccc12.Cl.Cl [H-8, Dihydrochloride]
Zscore_1: −1.014
Zscore_2: −2.509
Zscore_AVG: −1.761

Brc1c(Br)c(Br)c2n[nH]nc2c1Br [Casein Kinase II Inhibitor I]
Zscore_1: 0.6337
Zscore_2: 0.5348
Zscore_AVG: 0.5842

PI 3-KbInhibitor II
Zscore_2: 2.315
Zscore_AVG: 1.096

CC[n+]1c(/C=C/N(C)c2ccccc2)n(-c2ccccc2)c2ccc(-c3nc4ccccc4s3)cc21.[I-] [Akt Inhibitor IV]
Zscore_1: −5.269
Zscore_2: −6.844
Zscore_AVG: −6.057

Cl.Cl.O=S(=O)(c1cccc2cnccc12)N1CCCNCC1 [HA 1077, Dihydrochloride Fasudil]
Zscore_1: −1.883
Zscore_2: −3.234
Zscore_AVG: −2.559

CC(C)n1cnc2c(Nc3cccc(Cl)c3)nc(NCCO)nc21 [Compound 52]
Zscore_1: −1.412
Zscore_2: −0.2643
Zscore_AVG: −0.8381

CSc1nc(-c2ccnc(NC(C)c3ccccc3)c2)c(-c2ccc(F)cc2)[nH]1 (centres unmarked) [p38 MAP Kinase Inhibitor III]
Zscore_1: −0.7009
Zscore_2: 0.6426
Zscore_AVG: −0.02917

CCN(CC)C(=O)c1ccc(Nc2nc(OCC3CCCCC3)c3[nH]cnc3n2)cc1 [Cdk2 Inhibitor IV, NU6140]
Zscore_1: −4.843
Zscore_2: −6.155
Zscore_AVG: −5.499

COc1ccc2c(c1)/C(=C/c1cnc[nH]1)C(=O)N2 [SU9516]
Zscore_1: 8.231
Zscore_2: 12.12
Zscore_AVG: 10.18

C[S+]([O-])c1ccc(-c2nc(-c3ccc(F)cc3)c(-c3ccncc3)[nH]2)cc1 (centres unmarked) [SB 203580]
Zscore_1: −0.8209
Zscore_2: −0.02124
Zscore_AVG: −0.4211

O=[N+]([O-])/C=C/c1ccc2c(c1)OCO2 [Syk Inhibitor III]
Zscore_1: −0.8894
Zscore_2: 0.1912
Zscore_AVG: −0.3491

N#C/C(=C/c1ccc(O)c(O)c1)C(=O)NCc1ccccc1 [AG 490]
Zscore_1: −2.645
Zscore_2: 0.2008
Zscore_AVG: −1.222

COc1cc2ncnc(N3CCN(C(=O)Nc4ccc(Oc5ccccc5)cc4)CC3)c2cc1OC [PDGF Receptor Tyrosine Kinase Inhibitor III]
Zscore_1: 1.681
Zscore_2: 3.032
Zscore_AVG: 2.357

CCC(=O)Nc1ccc2ncnc(Nc3cccc(Br)c3)c2c1 [PD 174265]
Zscore_1: −0.1183
Zscore_2: 0.5895
Zscore_AVG: 0.2356

CC(C)(C)c1ccc(S(=O)(=O)Nc2ccc(-n3ccnc3)cc2)cc1 [Stem-Cell Factor/c-Kit Inhibitor, ISCK03]
Zscore_1: −0.9751
Zscore_2: −0.07435
Zscore_AVG: −0.5247

c1ccc(-c2cnc(Nc3ccc(OCCN4CCCC4)cc3)s2)cc1 [Flt-3 Inhibitor III]
Zscore_1: 1.171
Zscore_2: 3.361
Zscore_AVG: 2.266

O=c1cc(N2CCOCC2)oc2c1ccc1ccccc12 [DNA-PK Inhibitor II]
Zscore_1: 0.06496
Zscore_2: 0.1041
Zscore_AVG: 0.08452

GTP-14564
Zscore_1: −0.5638
Zscore_2: 2.605
Zscore_AVG: 1.021

Cl.Cl.O=S(=O)(NCCNC/C=C/c1ccc(Br)cc1)c1cccc2cnccc12 [H-89, Dihydrochloride]
Zscore_1: −3.268
Zscore_2: −0.4334
Zscore_AVG: −1.851

COc1ccc(-c2cnc3c(-c4ccsc4)cnn3c2)cc1 [VEGF Receptor 2 Kinase Inhibitor IV]
Zscore_1: −1.795
Zscore_2: 1.512
Zscore_AVG: −0.1417

CC(=O)O/N=C1/C(=C2/C(=O)Nc3cc(Br)ccc32)Nc2ccccc21 [GSK-3 Inhibitor X]
Zscore_1: 28.58
Zscore_2: 35.89
Zscore_AVG: 32.23

CCCCCCCCCCCCCCCCn1cc[n+](Cc2ccccc2)c1C.[I-] [eEF-2 Kinase Inhibitor, NH125]
Zscore_1: −4.759
Zscore_2: −7.332
Zscore_AVG: −6.046

O=C1NCCc2[nH]c(-c3ccncc3)cc21 [Cdc7/Cdk9 Inhibitor]
Zscore_1: −9.816
Zscore_2: −10.33
Zscore_AVG: −10.08

O=C(Nc1cc(C(F)(F)F)cc(C(F)(F)F)c1)c1cc(Cl)ccc1O [IKK-2 Inhibitor V]
Zscore_1: −5.485
Zscore_2: −7.792
Zscore_AVG: −6.638

O=C1NC(=O)/C(=C/c2ccc3nccnc3c2)S1 [PI 3-Kg Inhibitor]
Zscore_1: 0.8957
Zscore_2: 2.23
Zscore_AVG: 1.563

O=C(c1cc2cc(O)ccc2[nH]1)c1cc2cc(O)ccc2[nH]1 [Flt-3 Inhibitor II]
Zscore_1: 1.536
Zscore_2: 2.085
Zscore_AVG: 1.81

Cn1cnc2cc3c(Nc4cccc(Br)c4)ncnc3cc21 [BPIQ-I]
Zscore_1: 0.6533
Zscore_2: 1.97
Zscore_AVG: 1.312

CCCCCCOC(=O)[C@]1(O)C[C@@H]2O[C@@]1(C)n1c3ccccc3c3c4c(c5c6ccccc6n2c5c31)C(=O)NC4 [KT5720]
Zscore_1: 10.81
Zscore_2: 13.17
Zscore_AVG: 11.99

COc1cccc(-c2cc(=O)c3ccccc3o2)c1N [PD98059]
Zscore_1: −1.781
Zscore_2: −1.614
Zscore_AVG: −1.698

Cc1ccc(NC2=CC(=O)c3sc(C)nc3C2=O)cc1 [Cdk4 Inhibitor III]
Zscore_1: −6.073
Zscore_2: −8.107
Zscore_AVG: −7.09
